By IC50 is commonly meant the concentration at which inhibition is half-maximal. What is called EC50 is the concentration giving half of the maximal effect. As a reminder, the AC50 is the midpoint of the concentration-response curve, whichever way the signal moves.

The results in this text go back to ChEMBL document CHEMBL1201862, “PubChem BioAssay data set” (2004).

In test [1] the target is Nonstructural protein 1 (Influenza A virus, UniProt Q194T2). Format: functional, Influenza A virus (A/California/07/2009(H1N1)).
The test system of test [2] is H9c2. Kind of test: cells. The test is classed as functional, cell-based. To be noted: Rattus norvegicus, H9c2, Myocardium.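 Also: confirmatory concentration-response retest of ultra-high-throughput screening hits for modulation of myocardial damage; cell death induced by hydrogen peroxide oxidative stress; compound pretreatment for 60 min then peroxide exposure for 2 h; potency is for protecting the cells against peroxide damage rather than for killing them.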
In test [3] the target is T1, Bcl-2-like protein 10 (Homo sapiens, UniProt Q9HD36).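 Also: fluorescence polarization from a fluorescein-labelled TR3 peptide binding purified Bcl-B.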
T1 sequence (Q9HD36 whole entry): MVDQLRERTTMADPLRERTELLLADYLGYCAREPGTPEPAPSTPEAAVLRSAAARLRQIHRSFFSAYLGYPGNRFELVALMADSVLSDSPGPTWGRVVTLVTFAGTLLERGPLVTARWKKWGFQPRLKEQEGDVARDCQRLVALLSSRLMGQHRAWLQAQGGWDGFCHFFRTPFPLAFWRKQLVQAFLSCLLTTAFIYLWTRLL
Kind of test: displacers of TR3 peptide from Bcl-B, primary screen, selectivity assay for Bfl-1 inhibitor project, biochemical, fluorescence polarization, FITC-TR3 peptide (AID 748). (In general: In fluorescence polarisation assays a small probe gives low polarisation when free and higher when bound to something large.)

The target in test [4] is T2, Apoptotic protease-activating factor 1 (Homo sapiens, UniProt O14727).
T2 sequence (O14727 whole entry): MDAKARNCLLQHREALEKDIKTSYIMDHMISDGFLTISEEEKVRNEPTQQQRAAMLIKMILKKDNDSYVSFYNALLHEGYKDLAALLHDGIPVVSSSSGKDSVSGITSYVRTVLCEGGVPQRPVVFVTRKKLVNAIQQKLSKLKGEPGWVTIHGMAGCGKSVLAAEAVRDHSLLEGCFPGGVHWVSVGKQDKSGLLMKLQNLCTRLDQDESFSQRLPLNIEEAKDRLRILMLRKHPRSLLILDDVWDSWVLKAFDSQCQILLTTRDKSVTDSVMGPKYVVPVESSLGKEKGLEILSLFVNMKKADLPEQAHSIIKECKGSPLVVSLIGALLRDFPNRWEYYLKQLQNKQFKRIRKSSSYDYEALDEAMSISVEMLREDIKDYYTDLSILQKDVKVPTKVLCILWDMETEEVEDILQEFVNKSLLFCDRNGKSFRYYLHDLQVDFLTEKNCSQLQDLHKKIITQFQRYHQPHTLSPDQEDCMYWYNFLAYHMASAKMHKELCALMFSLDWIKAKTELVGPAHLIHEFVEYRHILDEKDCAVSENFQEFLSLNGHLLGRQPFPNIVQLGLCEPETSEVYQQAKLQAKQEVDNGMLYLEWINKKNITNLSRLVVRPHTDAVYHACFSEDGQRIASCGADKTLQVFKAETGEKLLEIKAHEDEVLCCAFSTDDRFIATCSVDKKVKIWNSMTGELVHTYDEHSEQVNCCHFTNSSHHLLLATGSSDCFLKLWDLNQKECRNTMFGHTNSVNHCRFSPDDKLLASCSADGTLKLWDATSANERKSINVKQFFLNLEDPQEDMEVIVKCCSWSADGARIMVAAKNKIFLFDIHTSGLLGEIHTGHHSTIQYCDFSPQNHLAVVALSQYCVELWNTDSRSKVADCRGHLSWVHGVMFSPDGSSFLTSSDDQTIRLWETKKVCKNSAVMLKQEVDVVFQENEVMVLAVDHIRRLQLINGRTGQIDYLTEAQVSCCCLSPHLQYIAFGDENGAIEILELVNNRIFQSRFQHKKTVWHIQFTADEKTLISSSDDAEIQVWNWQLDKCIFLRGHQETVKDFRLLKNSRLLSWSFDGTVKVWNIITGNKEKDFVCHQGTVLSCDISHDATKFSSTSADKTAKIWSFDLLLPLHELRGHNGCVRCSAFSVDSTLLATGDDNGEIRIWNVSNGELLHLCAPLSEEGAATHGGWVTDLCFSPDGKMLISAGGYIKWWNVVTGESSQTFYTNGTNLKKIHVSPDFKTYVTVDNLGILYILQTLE
Format: functional.

The target of test [5] is Glucose-6-phosphate 1-dehydrogenase (Homo sapiens, UniProt P11413). Description: human G6PD enzyme inhibitors, dose response, selectivity assay for P. falciparum G6PD inhibitor project, biochemical, fluorescence (AID 504792). Format: functional.
In test [6] the target is T3, RNA-binding protein pos-1 (Caenorhabditis elegans, UniProt G5EF15).
T3 sequence (G5EF15 whole entry): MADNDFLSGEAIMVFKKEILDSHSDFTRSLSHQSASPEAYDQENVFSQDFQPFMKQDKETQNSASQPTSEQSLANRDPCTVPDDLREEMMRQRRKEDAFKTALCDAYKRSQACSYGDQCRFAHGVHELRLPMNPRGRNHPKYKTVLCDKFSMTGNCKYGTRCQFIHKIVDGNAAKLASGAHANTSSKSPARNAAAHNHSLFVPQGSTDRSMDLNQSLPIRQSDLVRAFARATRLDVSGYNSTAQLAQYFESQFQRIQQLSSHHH
Kind of test: inhibitors of POS-1/mex-3 RNA binding, dose response, biochemical, fluorescence polarization (AID 1964).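 Also: purified POS-1 fused to maltose binding protein made in E. coli; potency of compounds blocking POS-1 binding to fluorescent RNA.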

The target in test [7] is T4, Zinc finger protein mex-5 (Caenorhabditis elegans, UniProt Q9XUB2).
T4 sequence (Q9XUB2 whole entry): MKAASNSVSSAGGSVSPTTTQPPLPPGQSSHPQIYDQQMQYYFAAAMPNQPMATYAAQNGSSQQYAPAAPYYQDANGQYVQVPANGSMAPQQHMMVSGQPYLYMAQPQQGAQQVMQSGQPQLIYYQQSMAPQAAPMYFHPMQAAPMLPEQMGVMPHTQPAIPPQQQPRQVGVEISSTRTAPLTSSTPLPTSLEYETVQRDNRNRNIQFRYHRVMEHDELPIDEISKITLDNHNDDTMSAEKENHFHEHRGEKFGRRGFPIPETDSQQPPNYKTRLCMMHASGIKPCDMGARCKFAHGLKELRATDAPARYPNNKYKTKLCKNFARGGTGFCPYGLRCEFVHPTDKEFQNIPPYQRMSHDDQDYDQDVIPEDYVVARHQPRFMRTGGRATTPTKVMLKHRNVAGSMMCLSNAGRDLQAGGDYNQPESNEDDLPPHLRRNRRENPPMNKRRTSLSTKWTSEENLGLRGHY
Kind of test: MEX-5/TCR-2 RNA interaction inhibitors, dose response, biochemical, C. elegans, fluorescence polarization (AID 1960).

Test [8] deals with T5, Hexokinase HKDC1 (Homo sapiens, UniProt Q2TB90).
T5 sequence (Q2TB90 whole entry): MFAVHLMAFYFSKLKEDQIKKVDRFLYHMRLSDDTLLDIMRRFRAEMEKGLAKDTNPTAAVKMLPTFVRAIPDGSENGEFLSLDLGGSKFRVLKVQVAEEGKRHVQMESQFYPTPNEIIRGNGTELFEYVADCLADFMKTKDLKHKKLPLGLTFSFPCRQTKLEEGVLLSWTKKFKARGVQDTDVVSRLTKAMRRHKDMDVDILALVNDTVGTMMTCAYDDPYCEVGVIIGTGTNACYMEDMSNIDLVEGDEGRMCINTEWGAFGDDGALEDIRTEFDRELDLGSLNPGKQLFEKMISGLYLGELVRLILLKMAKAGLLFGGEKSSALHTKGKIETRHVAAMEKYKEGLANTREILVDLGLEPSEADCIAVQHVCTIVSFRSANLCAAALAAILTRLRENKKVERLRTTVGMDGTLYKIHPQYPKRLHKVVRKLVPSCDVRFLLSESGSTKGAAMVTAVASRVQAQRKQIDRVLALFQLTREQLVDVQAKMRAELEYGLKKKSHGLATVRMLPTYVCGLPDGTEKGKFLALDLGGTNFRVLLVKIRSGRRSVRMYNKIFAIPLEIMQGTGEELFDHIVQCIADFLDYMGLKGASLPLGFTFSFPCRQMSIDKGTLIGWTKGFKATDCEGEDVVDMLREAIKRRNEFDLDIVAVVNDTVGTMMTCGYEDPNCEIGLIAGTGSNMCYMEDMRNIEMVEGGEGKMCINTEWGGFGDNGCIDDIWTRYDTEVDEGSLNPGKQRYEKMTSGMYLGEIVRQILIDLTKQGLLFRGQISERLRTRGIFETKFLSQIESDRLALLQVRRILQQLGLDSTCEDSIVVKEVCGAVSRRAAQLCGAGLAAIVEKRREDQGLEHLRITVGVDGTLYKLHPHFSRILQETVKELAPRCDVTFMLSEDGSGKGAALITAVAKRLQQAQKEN
Description: HKDC1 hexokinase inhibitors, dose response, biochemical, W721R variant (AID 504729). The test is classed as functional.

Test [9] has as its target T6, Ubiquitin-conjugating enzyme E2 N (Homo sapiens, UniProt P61088).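 Also: Dose-response confirmation in a TR-FRET assay detecting UBC13-driven polyubiquitin chain formation, inhibition measured.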
T6 sequence (P61088 whole entry): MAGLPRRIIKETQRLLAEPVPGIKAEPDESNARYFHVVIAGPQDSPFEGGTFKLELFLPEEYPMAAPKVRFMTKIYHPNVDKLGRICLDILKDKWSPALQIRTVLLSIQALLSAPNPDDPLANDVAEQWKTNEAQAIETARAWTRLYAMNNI
The test is classed as functional.

Test [10] deals with Streptococcus sp. 'group A'. Description: growth inhibition of control SK(-) GAS strain, dose response, counter-screen for streptokinase expression inhibitor project, luminescence, kanamycin, BacTiterGlo, confirmation (AID 1900). Format: functional, organism-based. Background: A counterscreen serves to expose hits that act by an unwanted route or on another target.
Test [11] deals with Streptococcus. Description: Group A Streptococcus viability loss, dose response, counter-screen for streptokinase expression inhibitor project, luminescence, BacTiterGlo (AID 1915).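 Also: potency for reduction of bacterial viability or growth.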 Format: functional, organism-based.
The target in test [12] is DNA dC->dU-editing enzyme APOBEC-3G (Homo sapiens, UniProt Q9HC16). Description: Dose Response confirmation of small molecule APOBEC3G DNA Deaminase Inhibitors via a fluorescence-based single-stranded DNA deaminase assay. [Related pubchem assays (depositor defined):AID493012, AID493028]. Format: functional.
Test [13] addresses T7, Streptokinase A (Streptococcus pyogenes serotype M1, UniProt P10520).
T7 sequence (P10520 whole entry): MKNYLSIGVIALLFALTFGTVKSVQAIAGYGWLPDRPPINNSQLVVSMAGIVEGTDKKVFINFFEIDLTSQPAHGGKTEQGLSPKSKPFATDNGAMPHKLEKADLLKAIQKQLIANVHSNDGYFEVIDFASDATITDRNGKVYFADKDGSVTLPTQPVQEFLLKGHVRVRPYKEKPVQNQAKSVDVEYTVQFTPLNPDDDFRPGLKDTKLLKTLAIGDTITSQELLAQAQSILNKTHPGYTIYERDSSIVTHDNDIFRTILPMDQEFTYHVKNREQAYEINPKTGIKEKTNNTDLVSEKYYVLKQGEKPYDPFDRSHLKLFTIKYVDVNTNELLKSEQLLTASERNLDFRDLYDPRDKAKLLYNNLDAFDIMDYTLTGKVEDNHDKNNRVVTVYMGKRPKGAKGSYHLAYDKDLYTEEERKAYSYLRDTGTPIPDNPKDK
Description: S. pyogenes streptokinase expression inhibitors, potency, dose response, plasminogen activation absorbance, OD405 (AID 1914).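 Also: secreted streptokinase activity via plasminogen activation per viability signal from cell pellet.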 Format: functional, Streptococcus pyogenes M1 GAS.

The target of test [14] is Eukaryotic translation initiation factor 4E (Mus musculus, UniProt P63073). Kind of test: eIF4E–eIF4G protein interaction inhibitors, dose response, biochemical, TR-FRET (AID 855).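 Also: potency for disrupting eIF4E binding to eIF4GI seen as loss of FRET.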 The test is classed as functional. Background: In TR-FRET formats the signal depends on donor and acceptor labels being close together.
Test [15] addresses DNA dC->dU-editing enzyme APOBEC-3A (Homo sapiens, UniProt P31941). Kind of test: APOBEC3A DNA deaminase inhibitors, dose response, biochemical (AID 504722). Format: functional.
Test [16] addresses FAD-linked sulfhydryl oxidase ALR (Homo sapiens, UniProt P55789). Description: inhibitors of human ALR sulfhydryl oxidase, dose response, biochemical, H2O2 detection, luminescence, cherry-pick (AID 493248).
In test [17] the target is Large T antigen (Simian virus 40, UniProt P03070). The test is classed as functional, Betapolyomavirus macacae.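 Also: Confirmatory-stage PubChem screen for compounds that inhibit SV40 T antigen.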

Structures are written as SMILES. Activity calls are given as the source filed them. A value given as a limit tells only on which side of the number the result lay.

Sequence of DNA dC->dU-editing enzyme APOBEC-3G (Q9HC16 whole entry): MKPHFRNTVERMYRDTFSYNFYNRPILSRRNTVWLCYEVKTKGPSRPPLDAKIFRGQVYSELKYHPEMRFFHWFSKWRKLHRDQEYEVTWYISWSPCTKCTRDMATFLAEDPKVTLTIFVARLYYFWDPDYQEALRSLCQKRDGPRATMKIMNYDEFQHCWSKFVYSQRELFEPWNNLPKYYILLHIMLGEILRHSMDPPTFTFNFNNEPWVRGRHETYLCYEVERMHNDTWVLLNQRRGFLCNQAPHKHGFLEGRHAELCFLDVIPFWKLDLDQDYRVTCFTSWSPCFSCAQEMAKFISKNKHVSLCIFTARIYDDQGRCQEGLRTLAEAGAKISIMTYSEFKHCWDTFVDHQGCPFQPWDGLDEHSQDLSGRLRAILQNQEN
Sequence of DNA dC->dU-editing enzyme APOBEC-3A (P31941 whole entry): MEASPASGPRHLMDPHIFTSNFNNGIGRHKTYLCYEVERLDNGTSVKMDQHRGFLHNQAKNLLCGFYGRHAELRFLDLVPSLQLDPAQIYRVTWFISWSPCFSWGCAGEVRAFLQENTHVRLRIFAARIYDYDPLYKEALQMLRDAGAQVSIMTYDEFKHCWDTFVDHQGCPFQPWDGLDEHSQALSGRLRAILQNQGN
Sequence of Nonstructural protein 1 (Q194T2 whole entry): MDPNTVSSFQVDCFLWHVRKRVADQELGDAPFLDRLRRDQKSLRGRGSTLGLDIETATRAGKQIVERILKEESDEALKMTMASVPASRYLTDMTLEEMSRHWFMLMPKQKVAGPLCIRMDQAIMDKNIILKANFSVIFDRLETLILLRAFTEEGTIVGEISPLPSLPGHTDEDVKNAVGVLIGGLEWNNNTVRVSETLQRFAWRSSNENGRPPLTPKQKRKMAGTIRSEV
Sequence of Large T antigen (P03070 whole entry): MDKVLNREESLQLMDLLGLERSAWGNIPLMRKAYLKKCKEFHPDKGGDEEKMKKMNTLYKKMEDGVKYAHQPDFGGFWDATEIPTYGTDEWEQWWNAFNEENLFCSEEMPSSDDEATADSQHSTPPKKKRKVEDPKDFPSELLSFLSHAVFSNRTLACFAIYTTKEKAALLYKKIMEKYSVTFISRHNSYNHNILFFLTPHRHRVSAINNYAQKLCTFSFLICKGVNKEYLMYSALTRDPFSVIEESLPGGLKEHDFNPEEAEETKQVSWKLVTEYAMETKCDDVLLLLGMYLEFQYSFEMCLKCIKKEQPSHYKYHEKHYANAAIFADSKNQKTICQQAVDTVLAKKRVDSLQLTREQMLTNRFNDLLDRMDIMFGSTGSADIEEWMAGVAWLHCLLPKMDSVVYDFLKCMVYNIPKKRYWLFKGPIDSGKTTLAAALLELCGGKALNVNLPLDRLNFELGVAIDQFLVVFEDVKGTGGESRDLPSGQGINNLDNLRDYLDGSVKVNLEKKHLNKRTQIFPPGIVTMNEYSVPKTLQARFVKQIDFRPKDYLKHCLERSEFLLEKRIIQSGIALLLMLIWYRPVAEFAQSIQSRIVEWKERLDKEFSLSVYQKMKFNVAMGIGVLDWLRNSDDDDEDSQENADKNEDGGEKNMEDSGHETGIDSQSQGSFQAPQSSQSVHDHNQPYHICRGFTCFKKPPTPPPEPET
Sequence of FAD-linked sulfhydryl oxidase ALR (P55789 whole entry): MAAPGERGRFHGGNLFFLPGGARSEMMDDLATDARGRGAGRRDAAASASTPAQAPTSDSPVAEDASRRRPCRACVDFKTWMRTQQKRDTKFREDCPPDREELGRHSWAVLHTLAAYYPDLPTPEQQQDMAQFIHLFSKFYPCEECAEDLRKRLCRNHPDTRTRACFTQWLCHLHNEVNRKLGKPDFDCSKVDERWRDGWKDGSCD
Sequence of Glucose-6-phosphate 1-dehydrogenase (P11413 whole entry): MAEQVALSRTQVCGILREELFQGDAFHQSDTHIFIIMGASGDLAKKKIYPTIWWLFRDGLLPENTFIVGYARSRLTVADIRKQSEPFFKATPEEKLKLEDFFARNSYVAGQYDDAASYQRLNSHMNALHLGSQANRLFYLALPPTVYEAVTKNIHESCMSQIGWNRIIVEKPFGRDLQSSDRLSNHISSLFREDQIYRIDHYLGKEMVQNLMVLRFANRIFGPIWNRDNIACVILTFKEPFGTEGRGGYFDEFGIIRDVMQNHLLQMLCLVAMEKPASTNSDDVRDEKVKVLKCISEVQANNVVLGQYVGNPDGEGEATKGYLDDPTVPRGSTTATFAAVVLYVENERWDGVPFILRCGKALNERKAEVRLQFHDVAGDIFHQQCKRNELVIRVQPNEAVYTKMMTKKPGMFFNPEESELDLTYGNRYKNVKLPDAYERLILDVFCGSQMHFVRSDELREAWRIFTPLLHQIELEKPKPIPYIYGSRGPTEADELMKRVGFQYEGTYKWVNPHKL
Sequence of Eukaryotic translation initiation factor 4E (P63073 whole entry): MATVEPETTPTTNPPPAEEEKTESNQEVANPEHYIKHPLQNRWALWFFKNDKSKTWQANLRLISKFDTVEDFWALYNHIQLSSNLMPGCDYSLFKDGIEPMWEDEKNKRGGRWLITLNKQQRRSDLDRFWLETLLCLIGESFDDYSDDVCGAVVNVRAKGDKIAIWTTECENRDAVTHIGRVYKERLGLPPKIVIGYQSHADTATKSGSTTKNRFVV

Consider `C[C@@H](C(=O)Nc1nc(-c2ccccn2)cs1)N1C(=O)C2CCCCC2C1=O` (stereo not given in full), for which the concentration for half-maximal inhibition (IC50) was 8.38 µM (active) in [1], 8.43 µM (active) in test [2] and 96 µM (inactive) in test [3].
As to `Cc1ccccc1N1C(=O)c2sc3nc4c(c(=O)n3c2C1=O)CCC4`, the IC50 in test [3] is 54.9 µM (inactive).
`C=CCN1C=C2C(=O)C(C)(OC(=O)CCC(=O)OC)C(=O)C(Br)=C2C=C1c1ccc(OC)cc1` (stereo not given): the results for the IC50 in [4], in test [5] and in [8] were 32.6 µM (active), 29.9 µM (inactive) and 24.6 µM (inactive), respectively. The figures for the concentration for a half-maximal effect (EC50) in [6] and in test [7] were 50.2 µM (active) and 42.8 µM (active), respectively.
As for `CC(C)CC(C(=O)NC(C)(C)C)N(Cc1cccs1)C(=O)c1snc(C(N)=O)c1N` (stereo not given), the IC50 in test [9] was > 20 µM (inactive).
Still for that read-out and setting: the figure for `NC(=S)N=Nc1c(O)n(Cc2ccc(F)cc2)c2ccccc12` is > 20 µM (inactive).
For the compound `COC(=O)c1ccc(CSc2nnc(S)s2)o1`, the values for the EC50 in test [10], in test [11] and in test [13] were 5.69 µM (active), 9.6 µM (active) and 5.61 µM (active), respectively. The IC50 in [12] was 5.99 µM (active); in test [14], > 64 µM (inactive); in test [15], > 100 µM (inactive).
With `COc1cc(/C=C2/C(=O)NN(c3ccc(Cl)c(Cl)c3)C2=O)cc([N+](=O)[O-])c1O`, in [16], the half-maximal activity concentration (AC50) is 409 nM (active). Besides, the IC50 in test [17] is 12.5 µM (active); in test [8] it was 32.5 µM (inactive).
As to `Cc1cc(C(F)F)n2ncc(C(=O)NCCc3ccc(Cl)cc3)c2n1`, the concentration for half-maximal inhibition (IC50) in test [8] is 12.7 µM (active).
Turning to `CC(C)Cn1c(S)nnc1-c1cccc(S(=O)(=O)N2CCOCC2)c1`, the half-maximal inhibitory concentration (IC50) was 5.37 µM (active) in test [12] and > 100 µM (inactive) in [15].
For `Sc1nnc(-c2ccccn2)n1/N=C/c1c(Cl)cccc1Cl`, in that order: 4.67 µM (active) and > 100 µM (inactive).
